# Reference: patent US9000189B2, “Biphenyl-substituted spirocyclic ketoenols” (Bayer CropScience AG, priority 2006, dated 2015)
# Where two headings read alike, the source gives them in different places.
# Legend:
# [1] = test system: larvae of the mustard beetle (Phaedon cochleariae); experiment: Example 1: Phaedon test (PHAECO spray treatment); settings: 168 h, read-out: efficacy (effect in %, beetle larvae killed)
# [2] = test system: green peach aphid (Myzus persicae); experiment: Example 13: activity boost through ammonium/phosphonium salts in combination with penetrants, Myzus persicae test; type: in vivo; settings: for Kill (%) after 6 d +RME 1000 pm: +RME 1000 pm (rapeseed oil methyl ester 500 EW); for Kill (%) after 6 d: no additive, bell pepper plants sprayed to runoff
# Excerpt: Activity Boost Through Ammonium/Phosphonium Salts in Combination with Penetrants
# (§1) Solvent: 7 parts by weight of dimethylformamide
# (§2) Emulsifier: 2 parts by weight of alkylaryl polyglycol ether
# (§3) For application with ammonium salts or phosphonium salts and penetration promoters (rapeseed oil methyl ester 500 EW) these are in each case added in a concentration of 1000 ppm to the spray liquor.
# Bell pepper plants (Capsicum annuum) heavily infested by the green peach aphid (Myzus persicae) are sprayed to runoff point with the preparation of active compound at the desired concentration.
# (§4) After the desired period of time, the kill in % is determined.
# [3] = test system: green peach aphid (Myzus persicae); experiment: Example 3: Myzus test (MYZUPE spray treatment); type: in vivo; settings: 144 h, read-out: efficacy (effect in %, aphids killed)
# [4] = test system: cotton aphid (Aphis gossypii); experiment: Example 14: Aphis gossypii test (spray to runoff, with ammonium salts and penetrants); type: in vivo; settings: for Kill (%) after 6 d +AS + RME 1000 ppm each: + AS and RME 1000 ppm each; for Kill (%) after 6 d +AS 1000 ppm: + ammonium sulphate 1000 ppm; for Kill (%) after 6 d +RME 1000 pm: + rapeseed oil methyl ester; for Kill (%) after 6 d: active compound alone
# Excerpt: as §1, §2, §3
# Cotton plants (Gossypium hirsutum) which are heavily infested by the cotton aphid (Aphis gossypii) are sprayed to runoff point with the preparation of active compound at the desired concentration.
# as §4
# [5] = Example A: penetration of active compounds through enzymatically isolated cuticles of apple leaves; type: in vitro ADME, apple trees of the Golden Delicious variety; settings: 500 ppm in DMF/emulsifier W 7:1 (w/w), 20° C., 60% rh
# Excerpt: Boosting of the penetration into the plant by ammonium salts or phosphonium salts, and synergistic boosting of penetration into the plants by ammonium/phosphonium salts in combination with penetration promoters
# This test measured the penetration of active compounds through enzymatically isolated cuticles of apple leaves.
# The leaves used were cut in the fully developed state from apple trees of the Golden Delicious variety. The cuticles were isolated as follows: • first of all, leaf discs labelled on the underside with dye and formed by punching were filled by means of vacuum infiltration with a pectinase solution (0.2% to 2% strength) buffered to a pH of between 3 and 4, • sodium azide was then added and • the leaf discs thus treated were left to stand until the original leaf structure broke down and the non-cellular cuticle underwent detachment.
# After that, only those cuticles from the top leaf sides that were free from stomata and hairs were used. They were washed a number of times in alternation with water and a buffer solution of pH 7. The clean cuticles obtained were, finally, applied to Teflon plaques, smoothed with a gentle jet of air, and dried.
# In the next step the cuticular membranes obtained in this way were placed in stainless steel diffusion cells (=transport chambers) for the purpose of membrane transport investigations. […]
# The diffusion cells were filled with a 30% strength ethylene glycol/water solution. Penetration was determined by applying 10 μl of the spray liquor of the composition below to the outer side of each of the cuticles. […]
# After the spray liquors had been applied, the water was evaporated and the chambers were inverted and placed into theromstated troughs, in which the temperature and humidity over the cuticles was adjustable by means of a gentle stream of air onto the cuticles, with the spray coating (20° C., 60% rh). At regular intervals, samples were taken using an autosampler, and the amount of active compound was determined using HPLC. […]
# [6] = Determination of the log P values by HPLC on a reversed-phase column (C18), acidic range; type: physicochemical; settings: HPLC reversed-phase C18, 43° C., acidic range (pH 2.3)
# Protocol: Determination of the Log P Values
# The log P values given in the table were determined in accordance with EEC Directive 79/831 Annex V.A8 by HPLC (High Performance Liquid Chromatography) on a reversed-phase column (C18). Temperature: 43° C.
# Mobile phases for the determination in the acidic range (pH 2.3): 0.1% aqueous phosphoric acid, acetonitrile; linear gradient from 10% acetonitrile to 90% acetonitrile
# The calibration was carried out using unbranched alkan-2-ones (having 3 to 16 carbon atoms) with known log P values (determination of the log P values by the retention times using linear interpolation between two successive alkanones).
# The lambda max values were determined in the maxima of the chromatographic signals using the UV spectra from 200 nm to 400 nm.
# [7] = test system: caterpillars of the army worm (Spodoptera frugiperda); experiment: Example 2: Spodoptera frugiperda test (SPODFR spray treatment); type: in vivo; settings: application rate 100 g/ha, after 7 d
# [8] = application rate 500 g/ha, after 6 d
# [9] = reversed-phase HPLC column (C18)
compound,measurement,setting,value
Cc1ccc(-c2ccc(F)cc2)cc1C1=C(O)C2(CCOCC2)NC1=O [Example I-1-a-1],pest or weed control at 500 g/ha,[1],≥ 80%
same,Kill (%) after 6 d +AS 1000 ppm,[2]; 0.8 ppm active compound,0%
same,Kill (%) after 6 d +AS + RME 1000 ppm each,[2]; 0.8 ppm active compound,15%
same,Kill (%) after 6 d +RME 1000 pm,[2]; 0.8 ppm active compound,0%
same,Kill (%) after 6 d,[2]; 0.8 ppm active compound,0%
same,Kill (%) after 6 d +AS 1000 ppm,[2]; 4 ppm active compound,15%
same,Kill (%) after 6 d +AS + RME 1000 ppm each,[2]; 4 ppm active compound,99%
same,Kill (%) after 6 d +RME 1000 pm,[2]; 4 ppm active compound,70%
same,Kill (%) after 6 d,[2]; 4 ppm active compound,0%
same,pest or weed control at 500 g/ha,[3]; [8],≥ 80%
same,Kill (%) after 6 d +AS + RME 1000 ppm each,[4]; 4 ppm,60%
same,Kill (%) after 6 d +AS 1000 ppm,[4]; 4 ppm,0%
same,Kill (%) after 6 d +RME 1000 pm,[4]; 4 ppm,0%
same,Kill (%) after 6 d,[4]; 4 ppm,0%
same,Kill (%) after 6 d +AS + RME 1000 ppm each,[4]; 20 ppm,80%
same,Kill (%) after 6 d +AS 1000 ppm,[4]; 20 ppm,5%
same,Kill (%) after 6 d +RME 1000 pm,[4]; 20 ppm,15%
same,Kill (%) after 6 d,[4]; 20 ppm,0%
COc1ccc(-c2ccc(C)c(C3=C(O)C4(CCOCC4)NC3=O)c2)cc1F [Example I-1-a-2],pest or weed control at 500 g/ha,[1],≥ 80%
same,pest or weed control at 500 g/ha,[3]; [8],≥ 80%
Cc1ccc(-c2ccc(F)cc2)c(C)c1C1=C(O)C2(CCOCC2)NC1=O [Example I-1-a-4],Penetration after 24 h/% EC,"[5]; EC alone, average of 8 to 10 measurements",3%
same,Penetration after 24 h/% EC + RME (1 g/l) + AS (1 g/l),[5]; with rapeseed oil methyl ester 1 g/l and ammonium sulphate 1 g/l,30%
same,Penetration after 24 h/% EC + RME (1 g/l),[5]; with rapeseed oil methyl ester 1 g/l,8%
same,Kill (%) after 6 d +AS 1000 ppm,[2]; 0.8 ppm active compound,0%
same,Kill (%) after 6 d +AS + RME 1000 ppm each,[2]; 0.8 ppm active compound,5%
same,Kill (%) after 6 d +RME 1000 pm,[2]; 0.8 ppm active compound,0%
same,Kill (%) after 6 d,[2]; 0.8 ppm active compound,0%
same,Kill (%) after 6 d +AS 1000 ppm,[2]; 4 ppm active compound,20%
same,Kill (%) after 6 d +AS + RME 1000 ppm each,[2]; 4 ppm active compound,98%
same,Kill (%) after 6 d +RME 1000 pm,[2]; 4 ppm active compound,5%
same,Kill (%) after 6 d,[2]; 4 ppm active compound,15%
O=C1NC2(CCOCC2)C(O)=C1c1cc(-c2ccc(F)c(C(F)(F)F)c2)ccc1Cl [Example I-1-a-24],pest or weed control at 500 g/ha,[1],≥ 80%
same,pest or weed control at 500 g/ha,[3]; [8],≥ 80%
CCC(=O)OC1=C(c2c(C)ccc(-c3ccc(F)cc3)c2C)C(=O)NC12CCOCC2 [Example I-1-b-1],pest or weed control at 500 g/ha,[3]; [8],≥ 80%
CCOC(=O)OC1=C(c2c(C)ccc(-c3ccc(F)cc3)c2C)C(=O)NC12CCOCC2 [Example I-1-c-1],pest or weed control at 500 g/ha,[3]; [8],≥ 80%
COC1=C(c2c(C)ccc(-c3ccc(F)cc3)c2C)C(=O)NC12CCOCC2 [Example I-1-f-1],pest or weed control at 500 g/ha,[1],≥ 80%
same,pest or weed control at 500 g/ha,[3]; [8],≥ 80%
Cc1ccc(-c2ccc(F)cc2)cc1C1=C(O)C2(CCCC2)OC1=O [Example I-2-a-1],pest or weed control at 500 g/ha,[1],≥ 80%
same,chromatographic logP,[6]; [9],3.12
same,pest or weed control at 500 g/ha,[3]; [8],≥ 80%
O=C1OC2(CCCC2)C(O)=C1c1cc(-c2ccc(F)c(F)c2)ccc1Cl [Example I-2-a-2],logP,[6],3.19
Cc1ccc(-c2ccc(F)c(F)c2)cc1C1=C(O)C2(CCCC2)OC1=O [Example I-2-a-3],logP,[6],3.25
Cc1ccc(-c2ccc(F)c(Cl)c2)cc1C1=C(O)C2(CCCC2)OC1=O [Example I-2-a-4],logP,[6],3.50
O=C1OC2(CCCC2)C(O)=C1c1cc(-c2ccc(F)cc2F)ccc1Cl [Example I-2-a-5],logP,[6],3.16
O=C1OC2(CCCC2)C(O)=C1c1cc(-c2cc(F)c(F)c(F)c2)ccc1Cl [Example I-2-a-6],logP,[6],3.35
same,"efficacy (effect in %, caterpillars killed)",[7],≥ 80%
O=C1OC2(CCCC2)C(O)=C1c1cc(-c2ccc(F)cc2)ccc1Cl [Example I-2-a-7],logP,[6],3.09
O=C1OC2(CCCCC2)C(O)=C1c1cc(-c2ccc(F)c(F)c2)ccc1Cl [Example I-2-a-8],logP,[6],3.48
O=C1OC2(CCCCC2)C(O)=C1c1cc(-c2cc(F)c(F)c(F)c2)ccc1Cl [Example I-2-a-9],logP,[6],3.65
O=C1OC2(CCCCC2)C(O)=C1c1cc(-c2ccc(F)cc2)ccc1Cl [Example I-2-a-10],logP,[6],3.37
Cc1ccc(-c2ccc(F)cc2)c(C)c1C1=C(O)C2(CCOCC2)OC1=O [Example I-2-a-11],logP,[6],2.76
Cc1ccc(-c2ccc(F)cc2)cc1C1=C(O)C2(CCOCC2)OC1=O [Example I-2-a-12],logP,[6],2.62
Cc1ccc(-c2ccc(F)c(F)c2)cc1C1=C(O)C2(CCOCC2)OC1=O [Example I-2-a-13],logP,[6],2.69
Cc1ccc(-c2cc(F)c(F)c(F)c2)cc1C1=C(O)C2(CCOCC2)OC1=O [Example I-2-a-14],logP,[6],2.87
Cc1ccc(-c2ccc(F)cc2)cc1C1=C(O)C2(CCCCC2)OC1=O [Example I-2-a-15],pest or weed control at 500 g/ha,[1],≥ 80%
same,chromatographic logP,[6],3.4
same,pest or weed control at 500 g/ha,[3],≥ 80%
Cc1ccc(-c2ccc(F)c(F)c2)c(C)c1C1=C(O)C2(CCOCC2)OC1=O [Example I-2-a-16],logP,[6],2.88
Cc1ccc(-c2ccc(F)cc2)cc1C1=C(OC(=O)C(C)C)C2(CCCC2)OC1=O [Example I-2-b-1],chromatographic logP,[6]; [9],4.85
Cc1ccc(-c2ccc(F)cc2)c(C)c1C1=C(OC(=O)C(C)C)C2(CCOCC2)OC1=O [Example I-2-b-2],pest or weed control at 500 g/ha,[1],≥ 80%
Cc1ccc(-c2ccc(F)c(F)c2)c(C)c1C1=C(OC(=O)C(C)C)C2(CCOCC2)OC1=O [Example I-2-b-3],pest or weed control at 500 g/ha,[3]; [8],≥ 80%
CCOC(=O)OC1=C(c2cc(-c3ccc(F)cc3)ccc2C)C(=O)OC12CCCCC2 [Example I-2-c-1],pest or weed control at 500 g/ha,[1],≥ 80%
same,chromatographic logP,[6],4.84
same,pest or weed control at 500 g/ha,[3],≥ 80%
CCOC(=O)C1(OC(=O)Cc2cc(-c3ccc(F)cc3)ccc2C)CCCCC1 [III-1],chromatographic logP,[6]; [9],5.43
CCOC(=O)C1(OC(=O)Cc2cc(Br)ccc2C)CCCC1 [III-1′],chromatographic logP,[6]; [9],4.52
